Results on two compounds are retold here after publication PMC6891286, “Towards the Development of an In vivo Chemical Probe for Cyclin G Associated Kinase (GAK)” (Molecules, 2019).

Series [1] is described as follows: metabolite identification in mouse liver microsomes. The protocol:
After centrifugation, the supernatant was subjected to analysis by LCMS, and structures of metabolites were assigned on the basis of their molecular weight and fragmentation pattern.
Compounds were incubated at a concentration of 10 µM with mouse liver microsomes in the presence of an excess of NADPH.
1.1. General Numbering of Metabolites
The metabolites are numbered according to their retention times in the gradient LC-MS analysis in positive […]
ion mode. […] The M number increases […]
consecutively for metabolites with increasing retention time.
To avoid confusion, labelled retention times of a metabolite peak in different injections are the same, which may lead to mismatch between labelled retention time and actual retention time.
General Strategy for Metabolite Identification
The vehicle control and study samples were injected into LC-MS with gradient elution using a Q1 scan method. Searching for potential metabolites was then performed using LightSight software (Applied Biosystems/MDS Sciex) by comparing a total ion current chromatogram of Q1 scan from a study sample with a chromatogram from the corresponding vehicle control sample. The study sample was then injected again to obtain the product ion spectra of potential metabolites using product ion scan methods. The fragmentation patterns of the potential metabolites were then compared to the fragmentation of the parent compound to elucidate the structures of the metabolites.
The assignment of fragments is shown
2.2. Identification of Metabolites in Mouse Liver Microsomal Incubation
In general terms: Liver microsomes are a subcellular fraction often used to study metabolism.

The target in series [2] is T1, GAK (Homo sapiens, UniProt O14976).
T1 sequence (O14976 1-1311): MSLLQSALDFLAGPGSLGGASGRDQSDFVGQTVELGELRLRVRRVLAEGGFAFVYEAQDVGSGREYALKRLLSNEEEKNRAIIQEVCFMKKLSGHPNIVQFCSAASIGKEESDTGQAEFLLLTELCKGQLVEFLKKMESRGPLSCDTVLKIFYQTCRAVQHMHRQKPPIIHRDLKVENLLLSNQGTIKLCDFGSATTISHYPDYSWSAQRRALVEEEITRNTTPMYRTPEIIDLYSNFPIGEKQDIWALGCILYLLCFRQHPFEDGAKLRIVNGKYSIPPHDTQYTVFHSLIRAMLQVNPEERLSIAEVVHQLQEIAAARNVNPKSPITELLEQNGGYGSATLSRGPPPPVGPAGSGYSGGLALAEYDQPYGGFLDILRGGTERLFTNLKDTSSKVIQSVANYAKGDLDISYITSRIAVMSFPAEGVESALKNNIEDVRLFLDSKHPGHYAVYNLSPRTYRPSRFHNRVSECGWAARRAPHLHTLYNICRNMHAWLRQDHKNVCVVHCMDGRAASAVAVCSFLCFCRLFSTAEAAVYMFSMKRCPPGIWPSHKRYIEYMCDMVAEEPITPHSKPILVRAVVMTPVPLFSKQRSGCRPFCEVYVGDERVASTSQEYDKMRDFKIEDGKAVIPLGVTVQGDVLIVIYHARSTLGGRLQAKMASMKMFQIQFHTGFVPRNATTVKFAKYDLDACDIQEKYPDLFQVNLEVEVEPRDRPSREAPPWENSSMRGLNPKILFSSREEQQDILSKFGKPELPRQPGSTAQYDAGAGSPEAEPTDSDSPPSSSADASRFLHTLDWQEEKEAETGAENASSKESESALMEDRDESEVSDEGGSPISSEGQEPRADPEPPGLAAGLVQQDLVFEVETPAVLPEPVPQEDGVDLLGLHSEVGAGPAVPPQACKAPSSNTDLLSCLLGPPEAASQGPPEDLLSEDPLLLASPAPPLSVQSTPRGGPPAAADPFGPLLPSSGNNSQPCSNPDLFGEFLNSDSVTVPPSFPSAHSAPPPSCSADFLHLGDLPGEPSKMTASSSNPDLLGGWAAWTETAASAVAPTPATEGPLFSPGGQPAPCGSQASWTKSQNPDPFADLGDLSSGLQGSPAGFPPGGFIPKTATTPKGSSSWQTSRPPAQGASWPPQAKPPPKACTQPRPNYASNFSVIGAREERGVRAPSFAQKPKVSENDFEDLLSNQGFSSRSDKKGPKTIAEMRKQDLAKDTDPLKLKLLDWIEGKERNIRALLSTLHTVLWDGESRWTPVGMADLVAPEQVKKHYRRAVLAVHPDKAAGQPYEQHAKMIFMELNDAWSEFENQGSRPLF
As to conditions: TR-FRET assay; read-out: Biochemical GAK Ki; cited from earlier work. On the technique in general: TR-FRET usually uses a lanthanide donor and a delayed reading to cut background.

Series [3] concerns the target T1, GAK. As to conditions: nanoBRET; read-out: Live Cell GAK IC50; cited from earlier work.
A further series has as its target T2, ABL2 (Homo sapiens, UniProt P42684).
T2 construct: purchased Eurofins DiscoverX (KINOMEscan)
In words: KINOMEscan. To be noted: 35 at 1 µM; read-out: % inhibition. The series is classed as binding. The method, then: (§1) KinomeScan Assay on 35 was performed as previously described at EuroFins DiscoverX (Fremont, CA, USA).

A further series concerns the target T3, AKT1 (Homo sapiens, UniProt P31749).
T3 construct: purchased Eurofins DiscoverX (KINOMEscan)
In words: KINOMEscan. As to conditions: 35 at 1 µM; read-out: % inhibition. The class given is binding. The method, then: as §1

For the next series, the target named is T4, BMPR2 (Homo sapiens, UniProt Q13873).
T4 construct: purchased Eurofins DiscoverX (KINOMEscan)
T4 sequence (Q13873 27-1038): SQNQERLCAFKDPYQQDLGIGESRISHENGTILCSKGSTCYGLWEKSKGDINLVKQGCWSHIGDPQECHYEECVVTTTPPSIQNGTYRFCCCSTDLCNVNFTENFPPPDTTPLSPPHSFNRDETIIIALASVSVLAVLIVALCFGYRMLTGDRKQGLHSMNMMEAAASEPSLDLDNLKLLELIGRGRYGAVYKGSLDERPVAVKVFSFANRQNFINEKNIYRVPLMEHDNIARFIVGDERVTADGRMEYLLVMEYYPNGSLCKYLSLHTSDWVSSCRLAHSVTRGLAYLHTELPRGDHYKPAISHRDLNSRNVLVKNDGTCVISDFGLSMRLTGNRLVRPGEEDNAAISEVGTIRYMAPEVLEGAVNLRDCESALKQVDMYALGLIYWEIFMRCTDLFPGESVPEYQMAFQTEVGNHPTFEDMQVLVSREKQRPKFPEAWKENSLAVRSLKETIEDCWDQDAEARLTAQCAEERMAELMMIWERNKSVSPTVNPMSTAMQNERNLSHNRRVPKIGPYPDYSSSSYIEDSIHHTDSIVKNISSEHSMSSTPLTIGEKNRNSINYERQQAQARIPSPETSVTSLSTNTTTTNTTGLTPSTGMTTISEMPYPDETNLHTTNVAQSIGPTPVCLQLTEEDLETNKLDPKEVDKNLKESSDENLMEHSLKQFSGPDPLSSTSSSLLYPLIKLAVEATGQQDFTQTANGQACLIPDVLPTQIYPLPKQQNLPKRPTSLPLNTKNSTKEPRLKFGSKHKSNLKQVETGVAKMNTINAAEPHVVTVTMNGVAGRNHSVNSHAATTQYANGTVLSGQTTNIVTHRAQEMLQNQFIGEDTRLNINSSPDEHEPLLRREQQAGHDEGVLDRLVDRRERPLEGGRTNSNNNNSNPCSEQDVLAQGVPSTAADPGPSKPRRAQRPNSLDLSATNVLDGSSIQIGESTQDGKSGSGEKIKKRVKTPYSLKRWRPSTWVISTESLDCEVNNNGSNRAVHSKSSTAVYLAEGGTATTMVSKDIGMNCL
In words: KINOMEscan. The series is classed as binding. To be noted: 35 at 1 µM; read-out: % inhibition. The protocol:
as §1

The next series has as its target T5, CAMK1D (Homo sapiens, UniProt Q8IU85).
T5 construct: purchased Eurofins DiscoverX (KINOMEscan)
In words: KINOMEscan. The class given is binding. As to conditions: 35 at 1 µM; read-out: % inhibition. The method, then: as §1

The target of a further series is T6, CHEK2 (Homo sapiens, UniProt O96017).
T6 construct: purchased Eurofins DiscoverX (KINOMEscan)
In words: KINOMEscan. The series is classed as binding. As to conditions: 35 at 1 µM; read-out: % inhibition. The method, then:
as §1

A further series addresses T7, EGFR(S752-I759del) (Homo sapiens, UniProt P00533, DEL752-759).
T7 construct: purchased Eurofins DiscoverX (KINOMEscan)
The series is described as follows: KINOMEscan. To be noted: 35 at 1 µM; read-out: % inhibition. The series is classed as binding. The method, then: as §1

In another series the target is T8, FAK (Homo sapiens, UniProt Q05397).
T8 construct: purchased Eurofins DiscoverX (KINOMEscan)
T8 sequence (Q05397 whole entry): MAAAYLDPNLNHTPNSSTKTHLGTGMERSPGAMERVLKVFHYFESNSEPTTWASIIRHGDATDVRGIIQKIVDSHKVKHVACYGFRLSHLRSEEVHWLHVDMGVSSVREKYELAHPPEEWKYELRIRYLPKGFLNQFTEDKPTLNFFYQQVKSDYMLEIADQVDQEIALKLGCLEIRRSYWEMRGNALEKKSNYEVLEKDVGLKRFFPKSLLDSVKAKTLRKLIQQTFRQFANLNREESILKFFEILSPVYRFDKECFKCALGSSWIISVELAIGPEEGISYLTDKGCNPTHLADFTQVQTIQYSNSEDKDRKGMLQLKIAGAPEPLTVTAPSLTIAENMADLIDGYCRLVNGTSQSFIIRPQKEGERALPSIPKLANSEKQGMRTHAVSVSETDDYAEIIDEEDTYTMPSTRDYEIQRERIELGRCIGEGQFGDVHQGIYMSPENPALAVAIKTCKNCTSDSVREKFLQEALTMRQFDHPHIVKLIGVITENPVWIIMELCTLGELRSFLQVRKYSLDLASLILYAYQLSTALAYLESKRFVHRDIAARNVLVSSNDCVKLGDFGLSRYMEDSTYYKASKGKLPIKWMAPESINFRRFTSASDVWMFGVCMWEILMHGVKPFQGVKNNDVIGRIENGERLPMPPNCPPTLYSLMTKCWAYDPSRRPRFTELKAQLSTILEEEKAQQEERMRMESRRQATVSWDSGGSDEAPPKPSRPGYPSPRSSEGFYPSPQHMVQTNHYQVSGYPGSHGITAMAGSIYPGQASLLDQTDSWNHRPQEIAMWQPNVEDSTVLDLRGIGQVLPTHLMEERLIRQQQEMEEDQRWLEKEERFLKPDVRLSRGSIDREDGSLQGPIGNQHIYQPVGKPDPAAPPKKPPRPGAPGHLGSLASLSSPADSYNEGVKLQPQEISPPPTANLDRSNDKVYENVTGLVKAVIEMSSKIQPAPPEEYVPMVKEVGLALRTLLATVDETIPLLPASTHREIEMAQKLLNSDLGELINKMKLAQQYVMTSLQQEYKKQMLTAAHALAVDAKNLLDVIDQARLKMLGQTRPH
The series is described as follows: KINOMEscan. To be noted: 35 at 1 µM; read-out: % inhibition. The class given is binding. The method, then:
as §1

Another series deals with T9, HPK1 (Homo sapiens, UniProt Q92918).
T9 construct: purchased Eurofins DiscoverX (KINOMEscan)
T9 sequence (Q92918 whole entry): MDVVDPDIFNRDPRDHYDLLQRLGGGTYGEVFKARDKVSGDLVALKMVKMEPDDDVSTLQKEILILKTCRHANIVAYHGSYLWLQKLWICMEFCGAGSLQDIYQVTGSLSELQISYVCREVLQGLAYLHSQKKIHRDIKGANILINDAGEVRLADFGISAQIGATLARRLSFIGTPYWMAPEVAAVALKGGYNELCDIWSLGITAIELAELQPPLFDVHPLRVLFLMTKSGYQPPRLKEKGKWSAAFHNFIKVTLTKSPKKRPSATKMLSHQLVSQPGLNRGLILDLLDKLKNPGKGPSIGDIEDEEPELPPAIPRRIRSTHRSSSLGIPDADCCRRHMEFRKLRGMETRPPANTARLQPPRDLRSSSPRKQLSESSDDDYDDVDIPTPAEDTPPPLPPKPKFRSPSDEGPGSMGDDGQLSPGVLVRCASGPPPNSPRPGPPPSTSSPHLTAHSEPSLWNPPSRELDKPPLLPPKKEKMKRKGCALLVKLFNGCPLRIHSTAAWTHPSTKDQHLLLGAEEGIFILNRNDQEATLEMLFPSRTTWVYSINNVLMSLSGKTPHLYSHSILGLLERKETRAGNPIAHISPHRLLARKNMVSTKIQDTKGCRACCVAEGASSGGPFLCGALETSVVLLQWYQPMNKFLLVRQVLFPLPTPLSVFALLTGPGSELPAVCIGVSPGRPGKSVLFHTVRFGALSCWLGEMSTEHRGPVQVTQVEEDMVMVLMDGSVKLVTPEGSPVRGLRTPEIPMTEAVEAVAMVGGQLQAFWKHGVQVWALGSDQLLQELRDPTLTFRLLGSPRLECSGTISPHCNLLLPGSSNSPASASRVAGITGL
In words: KINOMEscan. To be noted: 35 at 1 µM; read-out: % inhibition. The class given is binding. The protocol: as §1

The target in another series is T10, PFTAIRE2 (Homo sapiens, UniProt Q96Q40).
T10 construct: purchased Eurofins DiscoverX (KINOMEscan)
The series is described as follows: KINOMEscan. The series is classed as binding. To be noted: 35 at 1 µM; read-out: % inhibition. The protocol:
as §1

In another series the target is T11, PFTK1 (Homo sapiens, UniProt O94921).
T11 construct: purchased Eurofins DiscoverX (KINOMEscan)
T11 sequence (O94921 whole entry): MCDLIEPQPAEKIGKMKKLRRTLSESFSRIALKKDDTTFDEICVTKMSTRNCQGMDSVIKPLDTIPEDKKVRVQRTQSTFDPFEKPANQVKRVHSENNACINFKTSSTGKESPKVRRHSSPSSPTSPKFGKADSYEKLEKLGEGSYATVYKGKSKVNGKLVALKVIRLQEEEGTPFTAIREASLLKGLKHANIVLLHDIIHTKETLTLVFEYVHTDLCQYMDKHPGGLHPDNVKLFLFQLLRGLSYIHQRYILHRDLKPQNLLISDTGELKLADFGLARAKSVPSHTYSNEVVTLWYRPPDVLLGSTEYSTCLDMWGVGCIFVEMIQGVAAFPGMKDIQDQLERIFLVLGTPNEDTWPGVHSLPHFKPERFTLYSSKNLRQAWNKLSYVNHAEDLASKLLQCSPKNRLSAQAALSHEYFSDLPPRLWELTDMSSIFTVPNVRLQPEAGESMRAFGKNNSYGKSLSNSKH
The series is described as follows: KINOMEscan. The series is classed as binding. As to conditions: 35 at 1 µM; read-out: % inhibition. The protocol:
as §1

In a further series the target is T12, PRKR (Homo sapiens, UniProt P19525).
T12 construct: purchased Eurofins DiscoverX (KINOMEscan)
T12 sequence (P19525 whole entry): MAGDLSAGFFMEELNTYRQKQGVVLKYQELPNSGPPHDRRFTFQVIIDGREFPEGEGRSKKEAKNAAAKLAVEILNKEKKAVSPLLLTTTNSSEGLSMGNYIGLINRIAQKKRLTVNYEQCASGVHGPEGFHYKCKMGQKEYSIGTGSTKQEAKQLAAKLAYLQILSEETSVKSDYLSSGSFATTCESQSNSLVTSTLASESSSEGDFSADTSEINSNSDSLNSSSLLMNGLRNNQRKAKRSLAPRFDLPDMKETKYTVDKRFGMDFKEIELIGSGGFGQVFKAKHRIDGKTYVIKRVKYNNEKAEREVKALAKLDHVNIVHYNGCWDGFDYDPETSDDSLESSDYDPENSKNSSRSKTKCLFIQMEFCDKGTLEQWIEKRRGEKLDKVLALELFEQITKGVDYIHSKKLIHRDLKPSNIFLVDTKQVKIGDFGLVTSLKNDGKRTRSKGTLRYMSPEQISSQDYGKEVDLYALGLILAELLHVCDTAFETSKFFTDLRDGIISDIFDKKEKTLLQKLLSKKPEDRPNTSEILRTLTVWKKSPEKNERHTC
In words: KINOMEscan. The class given is binding. To be noted: 35 at 1 µM; read-out: % inhibition. The method, then: as §1

Another series concerns the target T13, RET (Homo sapiens, UniProt P07949).
T13 construct: purchased Eurofins DiscoverX (KINOMEscan)
The series is described as follows: KINOMEscan. To be noted: 35 at 1 µM; read-out: % inhibition. The class given is binding. The protocol:
as §1

In a further series the target is T14, WNK1 (Homo sapiens, UniProt Q9H4A3).
T14 construct: purchased EuroFins DiscoverX (Fremont, CA, USA)
The series is described as follows: KINOMEscan. The series is classed as binding. To be noted: 35 at 1 µM; read-out: % inhibition. The method, then: as §1

For a further series, the system named is FLT3(ITD). In words: KINOMEscan. The series is classed as binding, human. To be noted: 35 at 1 µM; read-out: % inhibition. The protocol:
as §1

The next series relates to FLT3(ITD,D835V). The series is described as follows: KINOMEscan. The class given is binding, human. As to conditions: 35 at 1 µM; read-out: % inhibition. The method, then:
as §1

T13 sequence (P07949 29-1114): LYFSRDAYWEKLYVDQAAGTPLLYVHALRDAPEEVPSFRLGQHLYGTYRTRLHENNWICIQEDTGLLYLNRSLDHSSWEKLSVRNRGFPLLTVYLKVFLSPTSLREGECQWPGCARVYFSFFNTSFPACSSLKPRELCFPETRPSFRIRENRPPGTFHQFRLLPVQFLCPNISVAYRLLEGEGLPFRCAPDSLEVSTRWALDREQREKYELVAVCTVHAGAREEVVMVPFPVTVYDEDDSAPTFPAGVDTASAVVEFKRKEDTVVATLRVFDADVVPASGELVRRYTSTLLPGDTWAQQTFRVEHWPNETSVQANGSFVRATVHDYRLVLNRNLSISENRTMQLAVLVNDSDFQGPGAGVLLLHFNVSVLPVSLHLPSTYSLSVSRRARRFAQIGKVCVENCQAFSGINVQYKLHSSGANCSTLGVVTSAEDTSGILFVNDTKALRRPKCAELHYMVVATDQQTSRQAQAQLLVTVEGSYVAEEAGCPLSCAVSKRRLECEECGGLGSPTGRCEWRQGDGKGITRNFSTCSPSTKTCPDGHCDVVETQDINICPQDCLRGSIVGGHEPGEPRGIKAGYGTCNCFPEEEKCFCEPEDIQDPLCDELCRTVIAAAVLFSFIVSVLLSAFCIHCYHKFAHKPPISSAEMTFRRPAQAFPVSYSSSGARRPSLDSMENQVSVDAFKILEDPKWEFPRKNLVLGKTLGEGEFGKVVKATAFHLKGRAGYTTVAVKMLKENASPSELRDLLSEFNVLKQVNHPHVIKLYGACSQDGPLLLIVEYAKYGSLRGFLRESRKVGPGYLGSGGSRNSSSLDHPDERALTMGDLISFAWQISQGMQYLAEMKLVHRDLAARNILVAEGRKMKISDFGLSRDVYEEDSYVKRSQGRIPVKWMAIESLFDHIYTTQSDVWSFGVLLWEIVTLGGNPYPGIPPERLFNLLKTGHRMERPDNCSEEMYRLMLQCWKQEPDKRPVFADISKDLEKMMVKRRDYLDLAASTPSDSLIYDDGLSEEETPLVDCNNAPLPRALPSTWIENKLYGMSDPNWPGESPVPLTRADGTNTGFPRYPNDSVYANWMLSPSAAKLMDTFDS

One may read the Ki as the dissociation constant of the complex between target and ligand, obtained from inhibition or displacement. As usually defined, the IC50 is the concentration needed to halve the response being measured. In the case of `COc1cc2nccc(Nc3cc(OC)c(OC)c(OC)c3)c2cc1OC` [Compound 8], the “Primary Metabolism Site” value in [1] is reported as “Aniline”. Moreover, on GAK [2], the Ki is 0.00054 µM. In addition, on GAK [3], the IC50 is 0.025 µM.
On to `Brc1ccc2nccc(Nc3ccc4cn[nH]c4c3)c2c1` [Compound 35, 6-Bromo-N-(1H-indazol-6-yl)quinolin-4-amine], for which the activity at 1 µM at ABL2 came to 88%; on AKT1, 100%; on BMPR2 it was 100%; at CAMK1D it was 100%; on CHEK2 it was 65%; on EGFR(S752-I759del) it was 89%. For the same compound, the activity at 1 µM came to 99% on FAK; 100% at HPK1; 100% on PFTAIRE2; 69% at PFTK1; 100% at PRKR; 100% on RET. The activity at 1 µM at WNK1 came out at 100%. Further, the results for the activity in the series with FLT3(ITD) and with FLT3(ITD,D835V) were 97% and 100%, respectively.
